Each structure is given as a SMILES string.

Consider 96 compounds from ChEMBL document CHEMBL3507680, “University of Dundee, Gates Library screen for HepG2 cell viability”.

A short description of the data set: Human HepG2 cell viability assay in 384 well format. The format is toxicity, cell-based. Details: dose 125 nL, time 70.5 hour; concentration not given beside the values. The note with it: HepG2 cells, read-out: Inhibition.
`CN(C)C1(CNc2nccc(C3CCCC3)n2)CCOCC1`: the cytotoxicity at 70.5 h was -4.46%.
For `C[C@@H]1CN(C2(C(=O)N3CCSCC3)Cc3ccccc3C2)C[C@H](C)O1` the value was 2.94%; for `FC(F)(F)c1ccnc(N2CCCC(N3CCOCC3)C2)c1` (stereo unspecified), 9.74%.
To `Oc1ccccc1-c1cc(-c2nc(C3CC3)n[nH]2)[nH]n1` belongs -6.44%; to `Cc1ccc(-c2ccnc(N3CCC4(CC3)CNC(=O)C4)n2)c(C)n1`, 15.1%; to `C[C@@H]1CN(c2nc(N)nc3c2CCC3)C[C@]1(C)O`, 1.03%.
To `CCn1cncc1-c1nc2c([nH]1)CC(C)(C)CNC2=O` belongs -3.18%; to `CC(C)(C)c1ccc(-n2ncc3c2CCCC3N)cc1` (stereo unspecified), -3.43%; to `CCc1nc(C)c(CN2CCN(c3ncnc4scc(C)c34)CC2)[nH]1`, -9.72%.
Regarding `CCc1noc(C2CC(=O)N(CCN(C)C)C2)n1` (stereo unspecified), the cytotoxicity at 70.5 h was -3.23%.
To `CN1CCN2CCN(Cc3cc(=O)n4c5c(cccc35)CCC4)CC2C1` (stereo unspecified) belongs -13.5%; to `CCCc1n[nH]c(=O)n1Cc1ccccc1F`, 2.4%; to `Cc1cc2cc(NC(=O)Cn3ncc(N4CCCC4)cc3=O)ccc2o1`, 15.3%.
Take `CSCC(=O)N1C[C@H](c2ccc(C)o2)[C@@H](N)C1`: the cytotoxicity at 70.5 h was -3.37%.
For `Oc1cccc(CN2CCN(c3nccc(CCC(F)(F)F)n3)CC2)c1` the value was -3.66%; for `O=C(O)c1ccc(C2CCCN(C(=O)c3ccc[nH]3)C2)cc1` (stereo unspecified), -6.26%; for `O=C1CC(C(=O)NCCN2CCOC2=O)c2cc(F)ccc2N1` (stereo unspecified), 2.37%.
For `CC(C)c1nnc(N2C[C@@H](CN(C)CCO)[C@@H](CO)C2)s1` the value was 12.7%; for `CS(=O)(=O)NCC(=O)N[C@H]1CN(CC2CC2)C[C@@H]1c1ccccc1`, -9.72%.
With `O=C1CCC(CCC(=O)N2CCC2c2cccs2)=NN1` (stereo unspecified), the cytotoxicity at 70.5 h was -13.3%.
For `O=C(c1n[nH]c2c1CCC2)N1CCCC1c1nc(-c2ccccn2)no1` (stereo unspecified) the value was -3.03%.
To `CCn1ccnc1CN1CCCC(N(C)CCc2ccccc2)C1` (stereo unspecified) belongs -1.22%; to `Cc1nccn1Cc1nnc(C2CCCN(c3ncccn3)C2)n1C` (stereo unspecified), 15.5%; to `O=C1CN(CCCNC(=O)Nc2cccc(Cl)c2F)CCN1`, -2.99%.
To `Cn1ccnc1CN(CCO)C(=O)c1cc2ccccc2o1` belongs 9.95%.
Turning to `COc1ccccc1S(=O)(=O)N1CCN(C)[C@@H]2CS(=O)(=O)C[C@@H]21`, the cytotoxicity at 70.5 h came to 24.4%.
For `Cc1n[nH]c(SCCNC2CCN(c3nc4ccccc4s3)CC2)n1` the value was 2%; for `CN(C)S(=O)(=O)CCNc1ncc2c(n1)CCN2c1ccccc1`, -6.26%; for `CNc1ccnc(NCCSc2nccn2C)n1`, -1.64%.
With `Cc1cc(N2CCCN(C(=O)Cc3cc(F)cc(F)c3)CC2)ccn1`, the cytotoxicity at 70.5 h was -1.71%.
Regarding `CC1(C)[C@H]2CC=C(CN3CCCn4nc(C(=O)NCCO)cc4C3)[C@@H]1C2`, the cytotoxicity at 70.5 h is -4.77%.
Regarding `COc1cc(-c2cnnc(NCCSC)n2)cc(OC)c1OC`, the cytotoxicity at 70.5 h is -5.18%.
Take `CCc1nn(C)c(Cl)c1CN(CCOC)Cc1cnn(C)c1`: the cytotoxicity at 70.5 h stood at 0.921%.
To `Cc1ccc2nc(CN3CCC(O)(Cn4ccnc4)CC3)cc(O)c2c1` belongs -7.59%.
Regarding `Cc1ccsc1CCNC(=O)CCC(=O)NC1CCCC1`, the cytotoxicity at 70.5 h is -15.3%.
On to `Cn1ccnc1C1CCCN(C(=O)c2ccncc2F)C1` (stereo unspecified), for which the cytotoxicity at 70.5 h is -5.94%.
In the case of `CCC[C@H]1CN(CCCO)C[C@@H]1NC(=O)Cn1cc(C)cn1`, the cytotoxicity at 70.5 h is -4.28%.
To `O=C(c1coc(COc2cccc3cnccc23)n1)N1CCSCC1` belongs -5.09%; to `CCSCCNc1cc(C)nc2c(C)c(C)nn12`, -4.65%.
Regarding `COc1cccc(-c2n[nH]c3c2CN(C(=O)c2oc(C)cc2C)CC3)c1`, the cytotoxicity at 70.5 h was -0.91%.
For `Cc1ccc([C@@H]2CN(S(=O)(=O)c3ccccc3)C[C@H]2N(C)C)cc1` the value was -9.61%; for `Cc1cnc(C)c(N2CCC3(CCCN(C4CCOCC4)C3=O)C2)n1` (stereo unspecified), -8.78%; for `CSc1ccc(CN(CCO)C(=O)CCc2ccc(O)cc2)cc1`, -16.6%.
Turning to `Nc1ccc(-c2cc(O)cc(CCC3CCCCN3)c2)cn1` (stereo unspecified), the cytotoxicity at 70.5 h was -5.09%.
For `CCCN1CCC(N2CCOC(Cc3cccc(OC)c3)C2)CC1` (stereo unspecified) the value was 9.86%; for `Cc1noc(C)c1CN1C[C@@H]2CC[C@H](C1)N(Cc1cc(F)cc(F)c1)C2`, -14.1%.
For `COCCn1cncc1CN1CCC(C(C)=O)(c2ccccc2)CC1` the value was -15.1%; for `c1ccc(CN2CCC(Cc3noc(C4CC4)n3)CC2)cc1`, -5.84%; for `CNC(=O)[C@@H]1C[C@@H](n2cc(-c3ccc(Cl)cc3)nn2)CN1`, 13.9%.
To `Cc1nnc(CN2C[C@H](NC(=O)C3CCOCC3)[C@@H](C(C)C)C2)s1` belongs -6.56%; to `CCc1nc(CC2CN(c3ncnc4sc(C)c(C)c34)CCO2)no1` (stereo unspecified), -19.7%.
`CSc1ncccc1C(=O)N1C[C@H]2CC[C@@H]1CN(CC(=O)N(C)C)C2`: the cytotoxicity at 70.5 h came out at 45.6%.
To `CN(C)C[C@H]1CC[C@@H](Cc2ccc3c(cnn3C)c2)O1` belongs -11.9%.
For the compound `Nc1ccnc(N2CCC(CCc3ccccc3)(C(=O)O)CC2)n1`, the cytotoxicity at 70.5 h worked out at 14.5%.
With `CNC(=O)[C@@H]1C[C@@H](NC(=O)c2ccc(OC)o2)CN1Cc1sccc1C`, the cytotoxicity at 70.5 h stood at 1.26%.
To `CCN1CC(C(=O)NCc2nn(CC)c3ccccc23)CCC1=O` (stereo unspecified) belongs 10.8%; to `CCN1CCC2(CCC1=O)CN(c1cnc3ccccc3n1)CCN2C` (stereo unspecified), -2.99%; to `N[C@@H]1c2ccccc2C2(CCN(c3cc(C(F)(F)F)ccn3)CC2)[C@H]1O`, 39.4%.
To `COc1cccc(-c2noc(-c3ccc(NCCCO)nc3)n2)c1OC` belongs 2.28%; to `Cc1nc(N2CCN(C)CC2)ncc1C(=O)N1CC[C@](C)(O)[C@H](C)C1`, -7.36%.
For `CNCC(=O)N[C@H]1CN(c2nc(C)c3c(n2)CCCC3)C[C@@H]1C1CC1` the value was -11.2%; for `CCn1cnnc1CCNCc1c[nH]nc1-c1ccc(F)cc1`, 5.79%.
Turning to `Cn1c(Cn2cccn2)nnc1C1CCN(Cc2ccccc2Cl)CC1`, the cytotoxicity at 70.5 h is -4.12%.
For `Cc1cccc(-c2nc(N)nc3c2CN(C(=O)c2ccncn2)C3C)c1` (stereo unspecified) the value was -18.2%.
To `Cc1ccncc1C(=O)N1C[C@H]2CN(CC3CCC3)C[C@@]2(C(=O)O)C1` belongs -8.6%.
To `CN1CCC(n2nc(Cc3cccc(Cl)c3)nc2Cn2ccnc2)CC1` belongs -8.49%; to `COc1cccc(OC2CN(C(=O)CCn3cnc4ccccc43)C2)c1`, 29.2%.
Turning to `Cc1ccc([C@@H]2CN(C(=O)c3cc(C)n[nH]3)C[C@H]2NC(=O)C2CC2)cc1`, the cytotoxicity at 70.5 h was 6.77%.
To `CC(C)c1nc(CCN(C)c2nccc(N3CCCC(O)C3)n2)no1` (stereo unspecified) belongs -8.03%; to `CCc1ccc(CN2CCOC(Cc3cccc(F)c3)C2)nc1` (stereo unspecified), -5.34%; to `CC1(C)CNC(=O)c2nc(CCN3CCC(O)CC3)[nH]c2C1`, -1.47%.
For `OC1CCN(CCNc2ncc3c(n2)CCN3c2ccccc2)CC1` the value was -7.98%; for `O=C(c1cccc(-n2cccn2)c1)N1CCCOC(CN2CCCC2)C1` (stereo unspecified), 0.244%.
Take `CC(=O)Nc1ccc(Cl)c(C(=O)N(C)Cc2nc(C)c[nH]2)c1`: the cytotoxicity at 70.5 h was -8.28%.
Turning to `COc1cccc(Cl)c1C(C(=O)O)N1CCC(Cn2cccn2)CC1` (stereo unspecified), the cytotoxicity at 70.5 h came to 17.9%.
To `O=C(NC1CCCN(CCCc2ccccc2)C1)c1ccc(Cl)s1` (stereo unspecified) belongs -4.66%; to `Cc1ccc(F)c(NC(=O)CCC(=O)N(C)Cc2nc(C)c[nH]2)c1`, -5.55%; to `COc1ccc2c(C)c(C(=O)NCC3CN(S(C)(=O)=O)CCO3)oc2c1` (stereo unspecified), 16.6%.
To `O=C(CO)N1CCCC(N2CCN(c3ccccc3F)CC2)C1` (stereo unspecified) belongs -0.739%; to `COc1ccc(OC)c(C2CCN(C(=O)CCc3n[nH]c(N)n3)C2)c1` (stereo unspecified), 12.4%; to `CC1(C)CN(C(=O)c2ccccc2-n2cncn2)CC1(C)O` (stereo unspecified), 18.2%.
To `Cc1ccc2nc(CN3CCN(C4CCCC4)C(=O)C3)cc(O)c2c1` belongs 9.29%; to `c1cncc(-c2noc(CCNc3ncnc4c3CCNCC4)n2)c1`, -7.7%; to `CC(=O)N1C[C@H](NC(=O)c2ccnc(N)c2)[C@@H](C(C)C)C1`, 3.14%.
Consider `Cc1ccc(C)c2c1NC(=O)C2CC(=O)O` (stereo unspecified), for which the cytotoxicity at 70.5 h amounted to 2.65%.
For the compound `COCCn1ccnc1C1CCCN(C(=O)c2cc(F)cc(F)c2)C1` (stereo unspecified), the cytotoxicity at 70.5 h was -3.01%.
Take `Cc1cc(N2CCC(N3CCOCC3)C2)n2nc(C)c(C)c2n1` (stereo unspecified): the cytotoxicity at 70.5 h is -4.03%.
In the case of `O=C(c1cnc(O)cc1O)N1CCCC(CCc2ccccc2F)C1` (stereo unspecified), the cytotoxicity at 70.5 h is -11.4%.
For `O=C(CCn1cccn1)N1CCC(C2CCN(c3ncccn3)CC2)C1` (stereo unspecified), the cytotoxicity at 70.5 h was -6.6%.
For `CCC[C@@H]1CN(Cc2cc3c(cc2OC)OCO3)C[C@H]1C(=O)O` the value was -2.47%.
For `CCN(Cc1ccncc1)C1CCCN(C/C=C/c2ccc(F)cc2)C1` (stereo unspecified) the value was -3.49%; for `OCC1(Cc2ccc(Cl)cc2)CCN(Cc2ccccc2O)CC1`, -4.64%; for `Cc1cc(C(=O)N2C[C@H]3CCC[C@@]3(CO)C2)c2ccc(F)cc2n1`, -1.1%.
Consider `Cc1cccc(C(C(=O)N2CCN(C(=O)c3ccc[nH]3)CC2)N(C)C)c1` (stereo unspecified), for which the cytotoxicity at 70.5 h was -8.99%.
For the compound `COc1ccccc1OC1CN(C(=O)C(c2ccccc2F)N(C)C)C1` (stereo unspecified), the cytotoxicity at 70.5 h was -0.928%.
Consider `CCNCCc1nc2cc(F)ccc2[nH]1`, for which the cytotoxicity at 70.5 h was -4.56%.
